Laboratory results: PubChem BioAssay AID1996
Values after ≈ are worked out from the molar mass of the structure shown.

Conditions: buffer; pH 7.4; 200.0 µM

solubility kinetic [mg/mL]	SMILES
> 0.0506	CC(C)C(=O)Nc1c2c(nn1-c1ccc(F)cc1)CS(=O)(=O)C2
> 0.049	Cc1ccccc1NC(=O)CSc1nnc(-c2ccccn2)o1
0.0212 (≈ 41.4 µM)	CCN(CC(=O)Nc1ccc(S(=O)(=O)N2CCCC2)cc1)CC(=O)Nc1ccccc1C(F)(F)F
0.0312 (≈ 111 µM)	CC(C)c1ccc(CNC(=O)CCc2ccccc2)cc1
0.0301 (≈ 96.7 µM)	COc1ccc(CCN(C)C/C=C/c2ccccc2)cc1OC
> 0.0521	Cc1cc(=O)oc2cc(OCCSCCN3CCCCC3)ccc12
0.0007 (≈ 2.55 µM)	O=C(Nc1ccc(F)cc1)Nc1ccc2c(c1)OCO2
> 0.0595	NS(=O)(=O)c1cccc(NC(=O)COC(=O)CCC(=O)c2cccs2)c1
0.0025 (≈ 10.4 µM)	O=Cc1c(-c2ccc(F)cc2)nc2ccccn12
0.0151 (≈ 46.6 µM)	O=C(COc1ncnc2ccccc12)Nc1cccc([N+](=O)[O-])c1
> 0.052	N#Cc1c(-c2ccccc2)cc(-c2ccccc2)nc1SCC(=O)O
> 0.0408	Cc1ccccc1NCCC(=O)Nc1ccc(F)cc1
0.0003 (≈ 1.1 µM)	CCSc1nc(-c2cccs2)nc2ccccc12
0.0341 (≈ 105 µM)	O=C(COC(=O)c1ccccc1Cl)NC1CCCCCCC1
0.0056 (≈ 23.2 µM)	CC(=O)c1ccc(Nc2nc(C)cc(C)n2)cc1
> 0.0345	CCCNC(=S)Nc1ccc(F)cc1F
0.0182 (≈ 64 µM)	Cc1nc(-c2ccc(NC(=O)c3ccco3)cc2)cs1
> 0.0497	N#CCCN(C(=O)CSc1n[nH]c(=O)[nH]c1=O)c1ccccc1
0.0266 (≈ 98.8 µM)	O=C(CCc1ccccc1)Nc1ccc2c(c1)OCO2
< 0.0002	COc1ccc(Nc2nc3c(C)cccn3c(=O)c2C=O)cc1

solubility kinetic [mg/mL]	SMILES
> 0.0656	Cc1cc(NS(=O)(=O)c2ccc(NC(=O)COc3ccc(C#N)cc3)cc2)nc(C)n1
> 0.049	Cc1cc(C(=O)OCC(=O)N2CCC(C)CC2)c2ccccc2n1
0.001 (≈ 3.2 µM)	CCc1cccc(NS(=O)(=O)c2cccc3cccnc23)c1
> 0.0429	CN(C(=O)COC(=O)c1cc[n+]([O-])cc1)c1ccccc1
> 0.0312	S=C1NCN(Cc2cccnc2)CN1
0.0125 (≈ 38.2 µM)	CCOc1cccc(C2CC(=O)Nc3cc(OC)c(OC)cc32)c1 (stereo not given)
> 0.0396	C[n+]1ccccc1/C=N/O.[I-]
0.0408	Cc1ccc(C)c(NC(=O)C[n+]2ccccc2)c1.[Cl-]
> 0.0476	Cc1ccc(CCN2CC(C(=O)NCCN(C)C)CC2=O)cc1 (stereo not given)
> 0.0451	COc1cc(OC)c(NC(=O)N2CCOCC2)cc1Cl
> 0.0317	CC(C)(C)CC(=O)NCc1cccs1
> 0.0518	O=C(COC(=O)Cn1cnc2ccccc21)Nc1ccc(F)c(F)c1
0.0106 (≈ 30.5 µM)	CSc1ccccc1C(=O)N(C)C(c1ccccc1)c1ccccc1
0.0345 (≈ 103 µM)	CCOc1ccccc1NC(=O)CN1C(=O)C(C)SC(C)C1=O (stereo not given)
0.041 (≈ 148 µM)	Cc1cc(C)nc(NC=C2C(=O)OC(C)(C)OC2=O)n1
0.0024 (≈ 7.86 µM)	Cc1ccc(S(=O)(=O)NC23CC4CC(CC(C4)C2)C3)cc1
0.033 (≈ 116 µM)	CCOc1ccc(N=CNc2ccc(OCC)cc2)cc1
0.0282 (≈ 110 µM)	O=C1Nc2ccccc2C1=Nc1cccc(Cl)c1
0.028 (≈ 110 µM)	CC(C)(C)c1ccc(C(=O)Nc2cccnc2)cc1
> 0.046	CSc1ccccc1NC(=O)CSc1cccc[n+]1[O-]

solubility kinetic [mg/mL]	SMILES
0.0486 (≈ 148 µM)	COc1ccc(CC(CC(=O)O)C(=O)NCc2ccccc2)cc1 (stereo not given)
0.0055 (≈ 17.3 µM)	CCCCNC(=O)C1(NC(=O)Nc2ccccc2)CCCCC1
> 0.0356	O=C(COC(=O)c1cccc(F)c1)NC1CC1
0.0032 (≈ 11.5 µM)	CCCc1cc(=O)[nH]c(SCc2ccc(F)cc2)n1
> 0.0521	Cc1cccc(NC(=O)CCCN2C(=S)NC(C)(C)CC2C)c1C (stereo not given)
> 0.0396	CCOC(=O)Cn1c(C)cc(COC)c(C#N)c1=O
0.0591 (≈ 131 µM)	Cc1ccccc1C(=O)N1CCC(C(=O)N2CCN(Cc3ccc4c(c3)OCO4)CC2)CC1
0.0023 (≈ 8.79 µM)	Fc1cccc(Cl)c1CSC1=NCCS1
> 0.0413	Cc1ccccc1NC(=O)COC(=O)CC1CCCC1
0.0023 (≈ 7.14 µM)	Cc1ccc(C(=O)NCC(=O)Nc2ccc(F)c(F)c2F)cc1
0.0451 (≈ 144 µM)	CC(C)N1CC(COc2ccc(Br)cc2)OC1=O (stereo not given)
> 0.0547	CCOC(=O)N1CCc2c(sc(NC(=O)CN(CC)CC)c2C#N)C1
0.0512 (≈ 150 µM)	COc1ccc(CN(C)CC(=O)NC(C)c2ccccc2)c(OC)c1 (stereo not given)
0.0375 (≈ 117 µM)	NC(=O)Nc1ccc(C(=O)OCC(=O)NC2CCCCC2)cc1
0.0019 (≈ 5.17 µM)	C=C(C)COc1ccc(-c2nc(N)ncc2-c2ccc(Cl)cc2)c(O)c1
> 0.0347	O=C(O)c1ccccc1-n1cccc1C(=O)O
> 0.0419	O=C(C[n+]1ccccn1)c1ccccc1.[Br-]
0.0137 (≈ 50.1 µM)	O=C1c2ccccc2C(=O)N1c1cccc2ccccc12
0.0191 (≈ 88.3 µM)	COc1cnc(-c2ccccc2)nc1OC
> 0.0517	O=C(c1cccc(S(=O)(=O)NCc2ccccc2)c1)N1CCCC1
